Test results as given in US4902699A, “Oxime of 1, 2, 5, 6-tetrahydropyridine compounds their use as medicaments and the compositions containing them” (Roussel Uclaf, priority 1987, dated 1990).
Counter-ions that a name gives are not always drawn. Like-named read-outs stand apart in the source and are kept apart here.

Columns and labels:
[1] = tested on: male mice (CD1 Charles RAivers); test: Hypothermic activity; format: in vivo; conditions: Mus musculus, read-out: Effective dose (-1° C.)
Protocol: (§1) The test is carried out on male mice (CD1 Charles RAivers) weighing 25-30 g, having fasted for 6 hours.
The temperature of the body is noted by means of a thermocouple inserted about 1.5 cm in the rectum and connected to an electric temperature recorder.
The products are administered by oral or sub-cutaneous route and the temperatures are noted at the instant 0 and at 30 minutes, 1 hour, 2 hours and 2 and a half hours after treatment.
The degree of hypothermia is evaluated as the difference between the treated animals and the controls, and the dose necessary to reduce the body temperature by 1° C. is noted.

[2] = tested on: male mice (CD1 Charles RAivers); test: Variation of the body temperature (duration of action); format: in vivo
Protocol: as §1
The temperature of the body is noted by means of a thermocouple inserted about 1.5 cm in the rectum and connected to an electric temperature recorder. […]
The duration of action of the products is determined, using the doses able to reduce the temperature by 1° to 1.5° C.

[3] = Acute toxicity, oral; parameters: species or system mice; conditions: mouse, in vivo, mortality during 7 days
Protocol: The test was carried out on male mice (CD1 Charles Rivers), of 22 to 24 g, having fasted for 16 hours. […] The mortality is noted during the 7 days following the treatment.

[4] = tested on: ileum isolated from guinea-pig; test: Test of ileum isolated from guinea-pig, agonist (contracting) activity; conditions: Cavia porcellus; negative logarithm of the dose which produces 50% of the maximum effect; read-out: pD2 (converted)
Protocol: Pieces of ileum are removed from guinea-pigs killed by decapitation. The isolated ileum is placed in 10 cm^3 of Tyrode solution at 37° C. and aerated with a mixture of oxygen (95%) and carbon dioxide gas (5%). The contractions due to the products are registered by means of a detector connected to a polygraph. The products to be tested are added at concentrations between 1.10^-3 M and 1.10^-8 M/l.
The products presenting a contracting effect are tested vis-a-vis atropine and hexamethonium in order to establish if the activity is of "muscarine" or "nicotine" type.
The agonist activity is expressed in pD2 (negative logarithm of the dose which produces 50% of the maximum effect).

[5] = Diarrhoeic activity; parameters: species or system mice; conditions: mouse, in vivo; oral route; dose which causes diarrhoea in 50% of the animals; read-out: DE50 (the source's name)
Protocol: The test is carried out on male mice (CD1 Charles Rivers) weighing […], after fasting for 6 hours. The product dissolved at 5% in methocel is administered by oral route by means of an oesophage probe.
Control animals receive only the excipient.
After treatment, the animals are placed separately in cages of which the base is covered with blotting paper, and they are put under observation for 30, 60, 120 and 180 minutes.
The sheets of absorbent paper are changed after each observation.
The consistency of the feces is evaluated according to the method of Randall and Baruth (Arch. Int. Pharmacodyn. 220, 94, 1976) according to the following scale of values.
1: feces slightly soft, with or without a damp halo
2: feces slightly soft, with a well defined circle of humidity.
3: feces soft with a large circle of humidity.
4: feces without consistency with a very large circle of humidity.
For each product, the dose is noted which causes diarrhoea in 50% of the animals according to the method of Miller and Tainter (Proc. Soc. Exp. Biol. Med., 57, 261, 1944).

With `COC(=O)C1=CCCN(C)C1` [Arecoline HBr, reference compound] the ED (-1 C) ([1]; O.R. (oral route)) was 194 mg/kg, the ED (-1 C) ([1]; SC.R (sub-cutaneous route)) was 3 mg/kg and the “Variations of the body temperature” value ([2]; os, 200 mg/kg, 30 min) was -1.1 °C. The “Variations of the body temperature” value ([2]; os, 200 mg/kg, 60 min) was -1.0 °C, the “Variations of the body temperature” value ([2]; os, 200 mg/kg, 120 min) was -0.2 °C and the “Variations of the body temperature” value ([2]; os, 200 mg/kg, 180 min) was -0.1 °C. For the same molecule, the “Variations of the body temperature” value ([2]; sc, 3.5 mg/kg, 30 min) was -1.5 °C, the “Variations of the body temperature” value ([2]; sc, 3.5 mg/kg, 60 min) was -0.1 °C and the “Variations of the body temperature” value ([2]; sc, 3.5 mg/kg, 120 min) was “+0.2 °C”. The “Variations of the body temperature” value ([2]; sc, 3.5 mg/kg, 180 min) was “+0.2 °C”.
In the case of `CON=CC1=CCCN(O)C1` [Example 1, Hydrochloride of the methyl ether of 1-hydroxy-1,2,5,6-tetrahydropyridin-3-carboxaldehyde oxime], the LD50 at 168 h [3] is reported as 60 mg/kg, the EC50 [4] is reported as 4.17 µM and the ED50 [5] is reported as 0.5 mg/kg. For the same molecule, the ED (-1 C) ([1]; O.R. (oral route)) was 0.19 mg/kg, the ED (-1 C) ([1]; SC.R (sub-cutaneous route)) was 0.2 mg/kg and the “Variations of the body temperature” value ([2]; os, 0.25 mg/kg, 30 min) was -1.4 °C. The “Variations of the body temperature” value ([2]; os, 0.25 mg/kg, 60 min) was -1.2 °C, the “Variations of the body temperature” value ([2]; os, 0.25 mg/kg, 120 min) was -0.1 °C and the “Variations of the body temperature” value ([2]; os, 0.25 mg/kg, 180 min) was -0.1 °C. For the same molecule, the “Variations of the body temperature” value ([2]; sc, 0.25 mg/kg, 30 min) was -1.4 °C, the “Variations of the body temperature” value ([2]; sc, 0.25 mg/kg, 60 min) was -1.1 °C and the “Variations of the body temperature” value ([2]; sc, 0.25 mg/kg, 120 min) was -0.1 °C. For the same molecule, the “Variations of the body temperature” value ([2]; sc, 0.25 mg/kg, 180 min) was -0.1 °C.
For `CCOC(=O)ON1CCC=C(C=NOC)C1` [Example 6, Methyl ether of 1-ethoxy carbonyloxy-1,2,5,6-tetrahydropyridin-3-carboxaldehyde oxime], the LD50 at 168 h [3] was 125 mg/kg, the EC50 [4] was 11.5 µM and the ED50 [5] was 0.6 mg/kg. The ED (-1 C) ([1]; O.R. (oral route)) was 0.26 mg/kg, the ED (-1 C) ([1]; SC.R (sub-cutaneous route)) was 0.24 mg/kg and the “Variations of the body temperature” value ([2]; os, 0.35 mg/kg, 30 min) was -1.3 °C. The “Variations of the body temperature” value ([2]; os, 0.35 mg/kg, 60 min) was -1.1 °C, the “Variations of the body temperature” value ([2]; os, 0.35 mg/kg, 120 min) was -0.1 °C and the “Variations of the body temperature” value ([2]; sc, 0.35 mg/kg, 30 min) was -1.4 °C. The “Variations of the body temperature” value ([2]; sc, 0.35 mg/kg, 60 min) was -1.1 °C, the “Variations of the body temperature” value ([2]; sc, 0.35 mg/kg, 120 min) was -0.1 °C and the “Variations of the body temperature” value ([2]; sc, 0.35 mg/kg, 180 min) was “+0.1 °C”.
With `CON=CC1=CCCN(OC(=O)c2ccccc2)C1` [Example 7, Methyl ether of 1-benzoyloxy-1,2,5,6-tetrahydropyridin-3-carboxaldehyde oxime] the LD50 at 168 h [3] was 90 mg/kg, the EC50 [4] was greater than 100 µM and the ED50 [5] was 1.5 mg/kg. The ED (-1 C) ([1]; O.R. (oral route)) was 0.42 mg/kg, the ED (-1 C) ([1]; SC.R (sub-cutaneous route)) was 0.21 mg/kg and the “Variations of the body temperature” value ([2]; os, 0.5 mg/kg, 30 min) was -1.1 °C. The “Variations of the body temperature” value ([2]; os, 0.5 mg/kg, 60 min) was -0.9 °C, the “Variations of the body temperature” value ([2]; os, 0.5 mg/kg, 180 min) was “+0.1 °C” and the “Variations of the body temperature” value ([2]; sc, 0.25 mg/kg, 30 min) was -1.2 °C. The “Variations of the body temperature” value ([2]; sc, 0.25 mg/kg, 60 min) was -0.9 °C and the “Variations of the body temperature” value ([2]; sc, 0.25 mg/kg, 180 min) was “+0.1 °C”.
With `CCCNC(=O)ON1CCC=C(C=NOC)C1` [Example 10, Methyl ether of 1-propyl aminocarbonyloxy-1,2,5,6-tetrahydropyridin-3-carboxyaldehyde oxime] the LD50 at 168 h [3] was 125 mg/kg, the EC50 [4] was greater than 100 µM and the ED50 [5] was 20 mg/kg. The ED (-1 C) ([1]; O.R. (oral route)) was 1.4 mg/kg, the ED (-1 C) ([1]; SC.R (sub-cutaneous route)) was 1.3 mg/kg and the “Variations of the body temperature” value ([2]; os, 1.56 mg/kg, 30 min) was -1.2 °C. The “Variations of the body temperature” value ([2]; os, 1.56 mg/kg, 60 min) was -1.0 °C, the “Variations of the body temperature” value ([2]; os, 1.56 mg/kg, 120 min) was -0.1 °C and the “Variations of the body temperature” value ([2]; os, 1.56 mg/kg, 180 min) was “+0.1 °C”. The “Variations of the body temperature” value ([2]; sc, 1.56 mg/kg, 30 min) was -1.2 °C, the “Variations of the body temperature” value ([2]; sc, 1.56 mg/kg, 60 min) was -1.1 °C and the “Variations of the body temperature” value ([2]; sc, 1.56 mg/kg, 180 min) was “+0.1 °C”.
`CON=CC1=CCCN(OC(=O)Nc2ccccc2)C1` [Example 13, Methyl ether of 1-phenylaminocarbonyloxy 1,2,5,6-tetrahydropyridin-3-carboxaldehyde oxime] gave an LD50 at 168 h [3] of 250 mg/kg, an EC50 [4] greater than 100 µM and an ED50 [5] of 5 mg/kg. For the same molecule, the ED (-1 C) ([1]; O.R. (oral route)) was 0.74 mg/kg, the ED (-1 C) ([1]; SC.R (sub-cutaneous route)) was 0.43 mg/kg and the “Variations of the body temperature” value ([2]; os, 1. mg/kg, 30 min) was -1.4 °C. The “Variations of the body temperature” value ([2]; os, 1. mg/kg, 60 min) was -1.1 °C, the “Variations of the body temperature” value ([2]; os, 1. mg/kg, 120 min) was -0.1 °C and the “Variations of the body temperature” value ([2]; os, 1. mg/kg, 180 min) was “+0. °C”. The “Variations of the body temperature” value ([2]; sc, 0.5 mg/kg, 30 min) was -1.2 °C, the “Variations of the body temperature” value ([2]; sc, 0.5 mg/kg, 60 min) was -1.2 °C and the “Variations of the body temperature” value ([2]; sc, 0.5 mg/kg, 120 min) was -0.1 °C.
In the case of `CON=CC1=CCCN(OC(=O)Nc2ccc(Cl)cc2)C1` [Example 14, Methyl ether of 1-(4-chlorophenylaminocarbonyloxy)-1,2,5,6-tetrahydropyridin-3-carboxaldehyde oxime], the LD50 at 168 h [3] is reported as greater than 1000 mg/kg, the EC50 [4] is reported as greater than 100 µM and the ED50 [5] is reported as 10 mg/kg. For the same molecule, the ED (-1 C) ([1]; O.R. (oral route)) was 1.8 mg/kg, the ED (-1 C) ([1]; SC.R (sub-cutaneous route)) was 1.8 mg/kg and the “Variations of the body temperature” value ([2]; os, 2.5 mg/kg, 30 min) was -1.3 °C. The “Variations of the body temperature” value ([2]; os, 2.5 mg/kg, 60 min) was -1.5 °C, the “Variations of the body temperature” value ([2]; os, 2.5 mg/kg, 120 min) was -0.3 °C and the “Variations of the body temperature” value ([2]; os, 2.5 mg/kg, 180 min) was “+0.1 °C”. For the same molecule, the “Variations of the body temperature” value ([2]; sc, 2.5 mg/kg, 30 min) was -0.4 °C, the “Variations of the body temperature” value ([2]; sc, 2.5 mg/kg, 60 min) was -1.5 °C and the “Variations of the body temperature” value ([2]; sc, 2.5 mg/kg, 120 min) was -1.3 °C. The “Variations of the body temperature” value ([2]; sc, 2.5 mg/kg, 180 min) was -0.2 °C.
Molecule `CON=CC1=CCCN(OC(=O)Nc2ccc(C(C)C)cc2)C1` [Example 15, Methyl ether of 1-(4-isopropylphenylaminocarbonyloxy) 1,2,5,6-tetrahydropyridin-3-carboxaldehyde oxime] has an LD50 at 168 h [3] of 350 mg/kg, an EC50 [4] greater than 100 µM and an ED50 [5] of 20 mg/kg. The ED (-1 C) ([1]; O.R. (oral route)) was 1.9 mg/kg, the ED (-1 C) ([1]; SC.R (sub-cutaneous route)) was 2.4 mg/kg and the “Variations of the body temperature” value ([2]; os, 2. mg/kg, 30 min) was -0.8 °C. For the same molecule, the “Variations of the body temperature” value ([2]; os, 2. mg/kg, 60 min) was -1.0 °C, the “Variations of the body temperature” value ([2]; os, 2. mg/kg, 120 min) was “+0. °C” and the “Variations of the body temperature” value ([2]; os, 2. mg/kg, 180 min) was “+0.1 °C”. The “Variations of the body temperature” value ([2]; sc, 4. mg/kg, 30 min) was -0.5 °C, the “Variations of the body temperature” value ([2]; sc, 4. mg/kg, 60 min) was -1.5 °C and the “Variations of the body temperature” value ([2]; sc, 4. mg/kg, 120 min) was -1.5 °C. The “Variations of the body temperature” value ([2]; sc, 4. mg/kg, 180 min) was -0.3 °C.
